This is an account of results in patent US20230391786A1, “cGAS INHIBITORS” (Eli Lilly and Company, priority 2022, published 2023).

One may read the IC50 as the concentration that inhibits the measured activity by half.

The assay deals with recombinant human cGAS (Homo sapiens (Human), UniProt Q8N884). Briefly: In vitro inhibition assay of cGAS activity (cGAMP production, RapidFire mass spectrometry). Format: biochemical. To be noted: 10 nM recombinant human cGAS, 60 nM 75-bp dsDNA, ATP, GTP, room temperature 3 hours, read-out: IC50 (μM), In vitro inhibition assay for Compounds 95-348. The method, boiled down: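 Product cGAMP was quantified by RapidFire MS against a difluoro-cGAMP internal standard after a formic acid quench. The reaction contained 10 nM recombinant full-length human cGAS, 75-bp dsDNA (60 nM), ATP and GTP (50 μM) and ran for 3 h at room temperature. IC50 values came from 4-parameter nonlinear regression.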
Sequence of recombinant human cGAS (Q8N884 whole entry): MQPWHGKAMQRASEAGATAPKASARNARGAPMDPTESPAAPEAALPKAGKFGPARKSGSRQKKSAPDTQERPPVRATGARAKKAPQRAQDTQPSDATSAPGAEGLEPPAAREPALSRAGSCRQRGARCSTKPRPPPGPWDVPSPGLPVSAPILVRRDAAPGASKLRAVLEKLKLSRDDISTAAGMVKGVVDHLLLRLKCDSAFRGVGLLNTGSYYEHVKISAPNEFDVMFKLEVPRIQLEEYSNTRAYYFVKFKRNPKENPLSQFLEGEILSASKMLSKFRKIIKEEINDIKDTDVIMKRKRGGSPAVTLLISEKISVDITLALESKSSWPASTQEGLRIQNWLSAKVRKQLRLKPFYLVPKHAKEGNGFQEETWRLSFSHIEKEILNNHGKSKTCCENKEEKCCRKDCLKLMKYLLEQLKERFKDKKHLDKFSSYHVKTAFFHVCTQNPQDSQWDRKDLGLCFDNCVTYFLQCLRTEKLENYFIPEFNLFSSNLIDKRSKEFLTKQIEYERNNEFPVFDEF
For `CC(=O)NCC(=O)NCc1[nH]c2c(Cl)c(Cl)ccc2c1-c1cn[nH]c1` [Example 106, 2-Acetamido-N-((6,7-dichloro-3-(1H-pyrazol-4-yl)-1H-indol-2-yl)methyl)acetamide], the IC50 worked out at 0.0561 µM.

As for `COCCC(OC)C(=O)N1CCn2c(c(-c3cn[nH]c3)c3ccc(Cl)c(Cl)c32)C1` (stereo not drawn) [Example 108, 1-[6,7-Dichloro-10-(1H-pyrazol-4-yl)-3,4-dihydro-1H-pyrazino[1,2-a]indol-2-yl]-2,4-dimethoxy-butan-1-one], the IC50 was found to be 0.0621 µM. In the case of `CC(=O)N1CCOCC1C(=O)N1CCn2c(c(-c3cn[nH]c3)c3ccc(Cl)c(Cl)c32)C1` (stereo not drawn) [Example 109, 1-(3-(6,7-Dichloro-10-(1H-pyrazol-4-yl)-1,2,3,4-tetrahydropyrazino[1,2-a]indole-2-carbonyl)morpholino)ethan-1-one], the IC50 was determined as 0.0698 µM.

Regarding `Cn1ncnc1CCC(=O)N1CCn2c(c(-c3cn[nH]c3)c3ccc(Cl)c(Cl)c32)C1` [Example 110, 1-[6,7-Dichloro-10-(1H-pyrazol-4-yl)-3,4-dihydro-1H-pyrazino[1,2-a]indol-2-yl]-3-(2-methyl-1,2,4-triazol-3-yl)propan-1-one], the IC50 worked out at 0.0561 µM.

Consider `OCC(O)CNc1cc(Cl)c(Cl)c2[nH]cc(-c3cn[nH]c3)c12` (stereo not drawn) [Example 175, 3-[[6,7-Dichloro-3-(1H-pyrazol-4-yl)-1H-indol-4-yl]amino]propane-1,2-diol], for which the IC50 stood at 0.0585 µM. The same measure for `N#CCC(=O)Nc1cc(Cl)c(Cl)c2[nH]cc(-c3cn[nH]c3)c12` [Example 176, 2-Cyano-N-[6,7-dichloro-3-(1H-pyrazol-4-yl)-1H-indol-4-yl]acetamide]: 0.0864 µM; for `CCNC(=O)COCC(=O)N1CCn2c(c(-c3cn[nH]c3)c3ccc(Cl)c(Cl)c32)C1` [Example 179, 2-[2-[6,7-Dichloro-10-(1H-pyrazol-4-yl)-3,4-dihydro-1H-pyrazino[1,2-a]indol-2-yl]-2-oxo-ethoxy]-N-ethyl-acetamide]: 0.0585 µM; for `CN1CC(=O)N(CC(=O)N2CCn3c(c(-c4cn[nH]c4)c4ccc(Cl)c(Cl)c43)C2)C1=O` [Example 311, 3-(2-(6,7-Dichloro-10-(1H-pyrazol-4-yl)-3,4-dihydropyrazino[1,2-a]indol-2(1H)-yl)-2-oxoethyl)-1-methylimidazolidine-2,4-dione]: 0.043 µM.

In the case of `COCCN1CC(C(=O)N2CCn3c(c(-c4cn[nH]c4)c4ccc(Cl)c(Cl)c43)C2)CC1=O` (stereo not drawn) [Example 312, 4-(6,7-dichloro-10-(1H-pyrazol-4-yl)-1,2,3,4-tetrahydropyrazino[1,2-a]indole-2-carbonyl)-1-(2-methoxyethyl)pyrrolidin-2-one], the IC50 came to 0.0468 µM. With `CN1CCN(CC(=O)N2CCn3c(c(-c4cn[nH]c4)c4ccc(Cl)c(Cl)c43)C2)C1=O` [Example 313, 1-(2-(6,7-Dichloro-10-(1H-pyrazol-4-yl)-3,4-dihydropyrazino[1,2-a]indol-2(1H)-yl)-2-oxoethyl)-3-methylimidazolidin-2-one] the figure was 0.0489 µM; with `O=C1NC(C(=O)N2CCn3c(c(-c4cn[nH]c4)c4ccc(Cl)c(Cl)c43)C2)CCO1` (stereo not drawn) [Example 314, 4-(6,7-Dichloro-10-(1H-pyrazol-4-yl)-1,2,3,4-tetrahydropyrazino[1,2-a]indole-2-carbonyl)-1,3-oxazinan-2-one], 0.0491 µM. The same measure for `O=C1COCCN1CC(=O)N1CCn2c(c(-c3cn[nH]c3)c3ccc(Cl)c(Cl)c32)C1` [Example 315, 4-(2-(6,7-Dichloro-10-(1H-pyrazol-4-yl)-3,4-dihydropyrazino[1,2-a]indol-2(1H)-yl)-2-oxoethyl)morpholin-3-one]: 0.0503 µM. With `O=C1CCCN1CC(=O)N1CCn2c(c(-c3cn[nH]c3)c3ccc(Cl)c(Cl)c32)C1` [Example 316, 1-(2-(6,7-Dichloro-10-(1H-pyrazol-4-yl)-3,4-dihydropyrazino[1,2-a]indol-2(1H)-yl)-2-oxoethyl)pyrrolidin-2-one] the figure was 0.0509 µM; with `COCCOCCC(=O)N1CCn2c(c(-c3cn[nH]c3)c3ccc(Cl)c(Cl)c32)C1` [Example 317, 1-(6,7-Dichloro-10-(1H-pyrazol-4-yl)-3,4-dihydropyrazino[1,2-a]indol-2(1H)-yl)-3-(2-methoxyethoxy)propan-1-one], 0.0516 µM; with `COCC(=O)N(C)CC(=O)N1CCn2c(c(-c3cn[nH]c3)c3ccc(Cl)c(Cl)c32)C1` [Example 318, N-(2-(6,7-Dichloro-10-(1H-pyrazol-4-yl)-3,4-dihydropyrazino[1,2-a]indol-2(1H)-yl)-2-oxoethyl)-2-methoxy-N-methylacetamide], 0.0524 µM. In the case of `CN1CC(C(=O)N2CCn3c(c(-c4cn[nH]c4)c4ccc(Cl)c(Cl)c43)C2)CC1=O` (stereo not drawn) [Example 319, 4-(6,7-Dichloro-10-(1H-pyrazol-4-yl)-1,2,3,4-tetrahydropyrazino[1,2-a]indole-2-carbonyl)-1-methylpyrrolidin-2-one], the IC50 was found to be 0.0534 µM. The same measure for `CCN1C(=O)CCC1C(=O)N1CCn2c(c(-c3cn[nH]c3)c3ccc(Cl)c(Cl)c32)C1` (stereo not drawn) [Example 320, 5-(6,7-Dichloro-10-(1H-pyrazol-4-yl)-1,2,3,4-tetrahydropyrazino[1,2-a]indole-2-carbonyl)-1-ethylpyrrolidin-2-one]: 0.055 µM. The same measure for `CC(=O)N1CC(C(=O)N2CCn3c(c(-c4cn[nH]c4)c4ccc(Cl)c(Cl)c43)C2)C1` [Example 321, 1-(3-(6,7-Dichloro-10-(1H-pyrazol-4-yl)-1,2,3,4-tetrahydropyrazino[1,2-a]indole-2-carbonyl)azetidin-1-yl)ethan-1-one]: 0.0562 µM; for `Cc1noc(COCC(=O)N2CCn3c(c(-c4cn[nH]c4)c4ccc(Cl)c(Cl)c43)C2)n1` [Example 322, 1-(6,7-Dichloro-10-(1H-pyrazol-4-yl)-3,4-dihydropyrazino[1,2-a]indol-2(1H)-yl)-2-((3-methyl-1,2,4-oxadiazol-5-yl)methoxy)ethan-1-one]: 0.06 µM; for `CN1C(=O)SC(CC(=O)N2CCn3c(c(-c4cn[nH]c4)c4ccc(Cl)c(Cl)c43)C2)C1=O` (stereo not drawn) [Example 323, 5-(2-(6,7-Dichloro-10-(1H-pyrazol-4-yl)-3,4-dihydropyrazino[1,2-a]indol-2(1H)-yl)-2-oxoethyl)-3-methylthiazolidine-2,4-dione]: 0.0613 µM. The same measure for `CN1C(=O)CCC1CC(=O)N1CCn2c(c(-c3cn[nH]c3)c3ccc(Cl)c(Cl)c32)C1` (stereo not drawn) [Example 324, 5-(2-(6,7-Dichloro-10-(1H-pyrazol-4-yl)-3,4-dihydropyrazino[1,2-a]indol-2(1H)-yl)-2-oxoethyl)-1-methylpyrrolidin-2-one]: 0.0626 µM; for `O=C(CCc1ncc(F)cn1)N1CCn2c(c(-c3cn[nH]c3)c3ccc(Cl)c(Cl)c32)C1` [Example 325, 1-(6,7-Dichloro-10-(1H-pyrazol-4-yl)-3,4-dihydropyrazino[1,2-a]indol-2(1H)-yl)-3-(5-fluoropyrimidin-2-yl)propan-1-one]: 0.0626 µM. For `CN1C(=O)CCC1C(=O)N1CCn2c(c(-c3cn[nH]c3)c3ccc(Cl)c(Cl)c32)C1` (stereo not drawn) [Example 326, 5-(6,7-Dichloro-10-(1H-pyrazol-4-yl)-1,2,3,4-tetrahydropyrazino[1,2-a]indole-2-carbonyl)-1-methylpyrrolidin-2-one], the IC50 is 0.0627 µM. As for `CN1C(=O)CN(CC(=O)N2CCn3c(c(-c4cn[nH]c4)c4ccc(Cl)c(Cl)c43)C2)C1=O` [Example 327, 1-(2-(6,7-Dichloro-10-(1H-pyrazol-4-yl)-3,4-dihydropyrazino[1,2-a]indol-2(1H)-yl)-2-oxoethyl)-3-methylimidazolidine-2,4-dione], the IC50 came out at 0.0635 µM. In the case of `O=C(CCn1ccnc1)N1CCn2c(c(-c3cn[nH]c3)c3ccc(Cl)c(Cl)c32)C1` [Example 328, 1-(6,7-Dichloro-10-(1H-pyrazol-4-yl)-3,4-dihydropyrazino[1,2-a]indol-2(1H)-yl)-3-(1H-imidazol-1-yl)propan-1-one], the IC50 was 0.0636 µM. With `CCC(=O)NC(C)C(=O)N1CCn2c(c(-c3cn[nH]c3)c3ccc(Cl)c(Cl)c32)C1` (stereo not drawn) [Example 329, N-(1-(6,7-Dichloro-10-(1H-pyrazol-4-yl)-3,4-dihydropyrazino[1,2-a]indol-2(1H)-yl)-1-oxopropan-2-yl)propionamide] the figure was 0.0682 µM; with `CN(C)C1(CC(=O)N2CCn3c(c(-c4cn[nH]c4)c4ccc(Cl)c(Cl)c43)C2)COC1` [Example 330, 1-(6,7-Dichloro-10-(1H-pyrazol-4-yl)-3,4-dihydropyrazino[1,2-a]indol-2(1H)-yl)-2-(3-(dimethylamino)oxetan-3-yl)ethan-1-one], 0.0801 µM; with `CN1C(=O)CCCC1C(=O)N1CCn2c(c(-c3cn[nH]c3)c3ccc(Cl)c(Cl)c32)C1` (stereo not drawn) [Example 331, 6-(6,7-Dichloro-10-(1H-pyrazol-4-yl)-1,2,3,4-tetrahydropyrazino[1,2-a]indole-2-carbonyl)-1-methylpiperidin-2-one], 0.083 µM. The same measure for `COCC(=O)NC(C)C(=O)N1CCn2c(c(-c3cn[nH]c3)c3ccc(Cl)c(Cl)c32)C1` (stereo not drawn) [Example 333, N-(1-(6,7-Dichloro-10-(1H-pyrazol-4-yl)-3,4-dihydropyrazino[1,2-a]indol-2(1H)-yl)-1-oxopropan-2-yl)-2-methoxyacetamide]: 0.0918 µM; for `COC1(C(=O)N2CCn3c(c(-c4cn[nH]c4)c4ccc(Cl)c(Cl)c43)C2)CCOC1` (stereo not drawn) [Example 334, (6,7-Dichloro-10-(1H-pyrazol-4-yl)-3,4-dihydropyrazino[1,2-a]indol-2(1H)-yl)(3-methoxytetrahydrofuran-3-yl)methanone]: 0.0985 µM.
